{"source": "patent US20250032460A1", "about": "“METHODS OF TREATING NEUROLOGICAL DISORDERS” (MapLight Therapeutics, Inc., priority 2021, published 2025)", "key": {"[1]": {"test": "Single ascending dose study: pharmacokinetics (plasma, CSF)", "format": "in vivo", "protocol": "Compound 1 was administered in a single ascending dose (SAD) study conducted in approximately 54 healthy adult volunteers to investigate Compound 1 pharmacokinetics, safety, and tolerability. The study was conducted in two groups.\n(§1) Group 2 evaluated tolerability of Compound 1 at Group 1 MTD with or without fesoterodine fumarate co-administration. Subjects received 8 mg of fesoterodine fumarate tablet or matched placebo tablet 4 hours prior to administration of 40 mg of Compound 1."}, "[2]": {"test": "Plasma concentrations during 7-day oral dosing in beagle dogs", "format": "in vivo", "settings": "male, beagle, dog, in vivo, po, 1.5 mg/kg/day"}, "[3]": {"test_system": "Amphetamine-Induced Hyperlocomotion", "test": "Compound 1 effect on amphetamine-induced hyperlocomotion (open field)", "format": "in vivo, mice", "settings": "for average (mean) centimeters traveled over 30 minutes: open field, vehicle cohort 7500 cm", "protocol": "The hyperdopaminergic state underlying LID was modeled in naïve male wild-type c57/B16 mice by administration of d-amphetamine, a drug which rapidly elevates synaptic dopamine levels.\nA single dose of 3 mg/kg of intraperitoneal (IP) d-amphetamine was administered to 32 male wild-type c57/B16 mice at approximately 8-weeks of age. Subsequently, the animals were subdivided into 3 groups and co-administered either a single dose of intraperitoneal vehicle only, Compound 1 at 0.3 mg/kg, or Compound 1 at 1 mg/kg. The locomotor behavior of the animals in an open field chamber (44 cm×44 cm×20 cm dimension) was monitored using a video tracking system (Noldus EthoVision v15). Over 30 minutes, the average (mean) centimeters traveled (+standard deviation) identified were: • 7500 cm (±314.9) in vehicle cohort • 5141 cm (±805.6) in the Compound 1 0.3 mg/kg cohort ([…] one-way ANOVA followed by Tukey's multiple comparison) • 2008 cm (±406.2) in the Compound 1 1.0 mg/kg cohort (p <0.001)"}, "salivation": {"test_system": "salivation", "test": "Single ascending dose study: salivation (pharmacodynamics)", "format": "in vivo, healthy adult volunteers", "settings": "Group 1, 1-40 mg Compound 1 (FIG. 1)", "protocol": "MTD was established at the dose which produced mild to moderate cholinergic adverse effects. Cholinergic effects were monitored for each dose, including pupillometry and salivation.\nas §1"}, "[4]": {"settings": "Group 2, 40 mg Compound 1, 8 mg fesoterodine fumarate"}, "[5]": {"settings": "Plasma concentration of Compound 1, Mean"}}}
{"smiles": "Cc1noc([C@@]23CNC[C@@H]2C3)n1", "note": "[Compound 1, 1-(3-methyl-[1,2,4]oxadiazol-5-yl)-(1R,5R)-3-aza-bicyclo[3.1.0]hexane]", "values": [{"measurement": "increase in exposure of Compound 1 following co-administration of fesoterodine fumarate, AUC0-inf", "setting": "[1]; [4]", "value": 29.0, "unit": "%"}, {"measurement": "increase in exposure of Compound 1 following co-administration of fesoterodine fumarate, AUC0-t", "setting": "[1]; [4]", "value": 30.0, "unit": "%"}, {"measurement": "increase in exposure of Compound 1 following co-administration of fesoterodine fumarate, Cmax", "setting": "[1]; Group 2, 40 mg Compound 1, 8 mg fesoterodine fumarate, p-value: 0.0347", "value": 50.0, "unit": "%"}, {"measurement": "compound 1 concentration in CSF at 1hour post-dose, mean", "setting": "[1]; human, in vivo, 1 h", "value": 50.30, "unit": "ng/mL"}, {"measurement": "mean compound 1 concentration in CSF at 1 hour post-dose", "setting": "[1]; human, in vivo, 1 h", "value": 56.96, "unit": "ng/mL"}, {"measurement": "Tmax", "setting": "[1]; human, in vivo, single oral doses, healthy subjects, read-out: median tmax", "value": "39 to 70.2", "unit": "min"}, {"measurement": "Plasma concentration of Compound 1, Mean", "setting": "[2]; 1 h", "value": 387, "unit": "ng/mL"}, {"measurement": "Plasma concentration of Compound 1, Mean", "setting": "[2]; 2 h", "value": 470.6, "unit": "ng/mL"}, {"measurement": "Plasma concentration of Compound 1, Mean", "setting": "[2]; 4 h", "value": 99.48, "unit": "ng/mL"}, {"measurement": "Plasma concentration of Compound 1, Mean", "setting": "[2]; 8 h", "value": 17.098, "unit": "ng/mL"}, {"measurement": "concentration at 1 h", "setting": "[2]; [5]", "value": 378, "unit": "ng/mL"}, {"measurement": "concentration at 2 h", "setting": "[2]; [5]", "value": 288, "unit": "ng/mL"}, {"measurement": "concentration at 4 h", "setting": "[2]; [5]", "value": 98.6, "unit": "ng/mL"}, {"measurement": "concentration at 8 h", "setting": "[2]; [5]", "value": 14.7, "unit": "ng/mL"}, {"measurement": "effect on hyperdopaminergic-mediated motor behavior", "setting": "[3]; 0.3 and 1 mg/kg IP, d-amphetamine-treated mice", "value": "reverses hyperdopaminergic-mediated motor behavior in a dose-dependent manner"}, {"measurement": "average (mean) centimeters traveled over 30 minutes", "setting": "[3]; Compound 1 0.3 mg/kg IP co-administered with d-amphetamine 3 mg/kg IP, p<0.5", "value": 5141, "unit": "cm"}, {"measurement": "average (mean) centimeters traveled over 30 minutes", "setting": "[3]; Compound 1 1.0 mg/kg IP co-administered with d-amphetamine 3 mg/kg IP, p <0.001", "value": 2008, "unit": "cm"}, {"measurement": "change in salivation with dose", "setting": "salivation", "value": "increase in salivation was observed with increasing dose"}]}
